Tests used:
[1] = target: T1, Uracil-DNA glycosylase (Homo sapiens, UniProt P13051); experiment: Inhibition of human uracil DNA glycosylase using fluorescent DNA substrate
[2] = target: T1, Uracil-DNA glycosylase; experiment: Inhibition of human uracil DNA glycosylase at […] using fluorescent DNA substrate

T1 sequence (P13051 whole entry): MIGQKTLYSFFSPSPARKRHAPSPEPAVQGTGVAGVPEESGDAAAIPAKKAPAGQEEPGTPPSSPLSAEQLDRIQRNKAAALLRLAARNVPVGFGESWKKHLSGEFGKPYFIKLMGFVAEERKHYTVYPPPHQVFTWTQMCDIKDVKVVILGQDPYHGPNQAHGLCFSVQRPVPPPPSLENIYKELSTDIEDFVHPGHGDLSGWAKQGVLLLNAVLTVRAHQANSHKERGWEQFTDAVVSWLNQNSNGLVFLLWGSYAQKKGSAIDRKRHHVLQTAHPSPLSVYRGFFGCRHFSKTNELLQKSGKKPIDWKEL

Ki [1] [mM] | inhibition [2] [%] | Compound
10 | – | O=Cc1cccc(C(=O)O)c1 [3-FORMYLBENZOIC ACID]
0.75 | – | NCCCO/N=C/c1cc(=O)[nH]c(=O)[nH]1
0.7 | – | NOCCCNCc1cc(=O)[nH]c(=O)[nH]1
16 | 18 | NOCCCNCc1cccc(C(=O)O)c1
10 | 25 | NCCCO/N=C/c1cccc(C(=O)O)c1
